These results are taken from patent publication US8003766B2, “Monoclonal antibody specific to ochratoxin A” (priority 2009, dated 2011).

The target of experiment [1] is 9C9H9 mAb (anti-OTA mAb). The experiment in a line: direct competitive ELISA (cdELISA). Type of experiment: binding, mouse. The note with it: for concentrations causing 50% inhibition (IC50) binding of mAb to OTA-OVA by free toxin: FIG. 2A. The method, then: (§1) Both the cdELISA (direct competitive ELISA) and ciELISA (indirect competitive ELISA) were used to determine the specificity of 9C9H9 mAb.
Another ELISA method (direct competitive ELISA) was used to characterize mAb. The rabbit anti-mouse-Fc antibody was diluted in PBS (2 μg/mL), and 0.1 mL of the diluted form was coated onto each well. After incubation at 37° C. for 1 h and washing with Tween-PBS. The anti-OTA mAb supernatant was diluted in PBS (5 μg/mL) and 0.1 mL of the diluted form was used to coat each well. After the plate had been incubated at 4° C. overnight, it was washed with Tween-PBS followed by blocking with gelatin-PBS at 37° C. for 30 min. The plate was washed again with Tween-PBS four times, and then OTA standard (0.05 mL/well in PBS) concentrations from 0.01 to 100 ng/mL or samples together with the OTA-HRP conjugate (30 ng/mL, in PBS, 0.05 mL/well) were added and incubated at 37° C. for 50 min. The plate was washed four times with PBS-Tween, and 0.1 mL of TMB substrate solution was added. After incubation at room temperature in the dark for 10 min, the reaction was terminated by adding 0.1 mL of 1 N HCl. The absorbance at 450 nm was determined in the Vmax automatic ELISA reader.

Experiment [2] deals with 9C9H9 mAb (anti-OTA mAb). Kind of experiment: indirect competitive ELISA (ciELISA). The note with it: for IC50 of binding of mAb to OTA-OVA by free toxin: OTA-OVA coated as solid-phase antigen, FIG. 2B. Type of experiment: binding, mouse. The method, then:
as §1
Indirect Competitive ELISA was than used to characterize each mAb. Briefly, each well of a microtiter plate was coated with 0.1 mL of the OTA-OVA and kept at 4° C. overnight. After the plate had been washed four times with Tween-PBS (0.35 mL/well; 0.05% Tween 20 in PBS) using an automated ELISA washer, 0.17 mL of gelatin-PBS (0.17 mL/well; 0.1% gelatin in PBS) was added and allowed to incubate at 37° C. for 30 min. The plate was washed again and 0.05 mL of OTA standard with concentrations from 0.01 to 100 ng/mL or extracted samples (0.05 mL/well in PBS) were added to each well, and then the anti-OTA mAb (25 ng/mL in PBS, 0.05 mL/well) was added to all wells and incubated at 37° C. for 50 min. After incubation, the plate was washed four times with Tween-PBS, and 0.1 mL of goat antimouse IgG-HRP conjugate (1:20000 dilution) was added and incubated at 37° C. for 45 min. The plate was washed four times with Tween-PBS, and 0.1 mL of TMB substrate solution was added. After 10 min of incubation at room temperature, 0.1 mL of 1 N hydrochloric acid was added to stop the reaction. Absorbance at 450 nm was determined in a Vmax automatic ELISA reader.

Where [3] appears, read: at a concentration as high as 100 μg/mL.

For `C[C@@H]1Cc2c(Cl)cc(C(=O)N[C@@H](Cc3ccccc3)C(=O)O)c(O)c2C(=O)O1` [OTA, ochratoxin A], the “concentrations causing 50% inhibition (IC50) binding of mAb to OTA-OVA by free toxin” value in experiment [1] is recorded as 0.32 ng/mL. In addition, the “IC50 of binding of mAb to OTA-OVA by free toxin” value (“IC50 of binding … by free toxin” below) in experiment [2] is given as 0.28 ng/mL.

In the case of `N[C@@H](Cc1ccccc1)C(=O)O` [phenylalanine], in experiment [1] (setting [3]), the “inhibition of the binding of mAb to the marker antigen (OTA-HRP)” value was “did not inhibit”. Besides, in experiment [2] (setting [3]), the “inhibition of the binding of mAb to the marker antigen (OTA-OVA)” value was “did not inhibit”.

As to `CCOC(=O)[C@H](Cc1ccccc1)NC(=O)c1cc(Cl)c2c(c1O)C(=O)O[C@H](C)C2` [OTC, ochratoxin C], in experiment [1], the “concentrations causing 50% inhibition (IC50) binding of mAb to OTA-OVA by free toxin” value came out at 0.28 ng/mL. In addition, the “IC50 of binding … by free toxin” value in experiment [2] is given as 0.25 ng/mL.

With `C[C@@H]1Cc2ccc(C(=O)N[C@@H](Cc3ccccc3)C(=O)O)c(O)c2C(=O)O1` [OTB, ochratoxin B], the “concentrations causing 50% inhibition (IC50) binding of mAb to OTA-OVA by free toxin” value in experiment [1] came to 0.17 ng/mL. In experiment [2], the “IC50 of binding … by free toxin” value was 0.35 ng/mL.
